Entries after “also recorded” stand apart in the source; their conditions may differ.
What was measured:
[1] = tested on: uterus and vagina of ovariectomized mice; test: Uterine and vaginal weight in ovariectomized mice treated or not with estrone (9 days oral); assay type: in vivo, BALB/c mice; settings: for Inhibition of estrone-stimulated uterine weight / Inhibition of estrone-stimulated vaginal weight: 9 days, OVX mice + E1
Procedure: (St-Constant, Quebec, Canada) and housed 5 per cage in a temperature (23±1° C.)—and light (12 h light/day, lights on at 7:15)—controlled environment. The mice were fed rodent chow and tap water ad libitum. […] Ten mice were kept intact as controls. […] Compounds were dissolved in ethanol (4% final concentration) and administered in 0.4% methylcellulose. Mice in the intact and OVX control groups received the vehicle alone (4% ETOH-0.4% methylcellulose) during the 9-day period. The animals were killed by exsanguination at the abdominal aorta on the 11th morning following ovariectomy.

[2] = tested on: ovariectomized female rats; test: Prevention of bone loss, body fat, serum cholesterol and ALP, 3-month treatment of OVX rats (Example 5A, experiment 1); assay type: in vivo, Sprague-Dawley rats; settings: OVX rats, 3 months
Procedure: (§1) Ten to twelve week-old female Sprague-Dawley rats (Crl:CD(SD)Br) (Charles River Laboratory, St-Constant, Canada) weighing approximately 220-270 g at start of treatment were used. The animals were acclimatized to the environmental conditions (temperature: 22±3° C.; humidity: 50±20%; 12-h light-12-h dark cycles, lights on at 07:15 h) for at least 1 week before starting the experiments. The animals were housed individually and were allowed free access to tap water and a pelleted certified rodent feed (Lab Diet 5002, Ralston Purina, St-Louis, Mo.). Experiments were conducted in an animal facility approved by the Canadian Council on Animal Care (CCAC) and the Association for Assessment and Accreditation of Laboratory Animal Care (AAALAC) in accordance with the CCAC Guide for Care and Use of Experimental Animals.
On day 1 of the study, the animals of the appropriate groups were bilaterally ovariectomized (OVX) under isoflurane anesthesia. […] Treatments were initiated on day 2 of the study and were performed once daily during 3 months.
(§2) After 3 months (experiment 1) or 26 weeks (experiment 2) of treatment, individual rats under Isoflurane anesthesia had their whole body skeleton and lumbar spine scanned using dual energy x-ray absorptiometry (DEXA; QDR 4500A, Hologic, Waltham, Mass.) and a Regional High Resolution Scan software. The bone mineral density (BMD) of the lumbar spine (vertebrae L2 to L4) and the total body composition (fat percentage) were determined.
(§3) After 3 months (experiment 1) or 26 weeks (experiment 2) of treatment, blood samples were collected at the jugular vein from overnight fasted animals (under Isoflurane anesthesia). Samples were processed for serum preparation and frozen at −80° C. until assay. Serum cholesterol levels and alkaline phospatase activity (ALP) were determined using the Boehringer Mannheim Diagnostic Hitachi 911 Analyzer (Boehringer Mannheim Diagnostic Laboratory Systems).

[3] = tested on: ovariectomized female rats; test: Prevention of bone loss, body fat, serum cholesterol and ALP, 26-week treatment of OVX rats (Example 5A, experiment 2); assay type: in vivo, Sprague-Dawley rats; settings: OVX rats, 26 weeks
Procedure: as §1
On day 1 of the study, the animals of the appropriate groups were bilaterally OVX under isoflurane anesthesia. Tested compounds were administered as suspension in 0.4% methylcellulose by oral gavage. Treatments were initiated on day 2 of the study and were performed once daily during 26 weeks. In both experiments, animals not receiving a test article were treated with the appropriate vehicle alone during the same period.
as §2, §3

[4] = tested on: OVX rats having established osteopenia; test: Treatment of OVX rats having established osteopenia, 26 weeks (Example 5B): BMD, total body fat; assay type: in vivo, Sprague-Dawley rats; settings: treatment started 10 weeks after OVX, 26 weeks daily
Procedure: as §1, with “Height” for “Ten”, “nine month-old” for “twelve week-old”, “Canada)” for “Canada) weighing approximately 220-270 g at start of treatment”, “used in this experiment.” for “used.”, “prior to” for “before starting”, “ovariectomy. Animals were bilaterally ovariectomized (OVX) under isoflurane anesthesia. Twenty animals were kept intact as control.” for “experiments.”
Treatments were initiated 10 weeks after the ovariectomy and were performed once daily during 26 weeks. Animals not receiving a test article were treated with the appropriate vehicle alone during the same period.
Prior to the OVX, prior to the first day treatment (10 weeks after OVX) and after 26 weeks of treatment, individual rats under Isoflurane anesthesia had their whole body skeleton, lumbar spine and right femur scanned using dual energy x-ray absorptiometry (DEXA; QDR 4500A, Hologic, Waltham, Mass.) and a Regional High Resolution Scan software. The bone mineral density (BMD) of the lumbar spine (vertebrae L2 to L4), femur and the total body composition (fat percentage) were determined.

ZR-75-1 breast tumors = test: Growth and response category of human ZR-75-1 breast tumors in OVX nude mice, 7 antiestrogens, 161 days (Example 8); assay type: in vivo
Procedure: The mice (5 per cage) were housed in vinyl cages equipped with air filter lids, which were kept in laminar airflow hoods and maintained under pathogen-limiting conditions. The photoperiod was 12 hours of light and 12 hours of darkness (lights on at 07:15). Cages, bedding and food (Agway Pro-Lab R-M-H Diet #4018) were autoclaved before use. Water was autoclaved and provided ad libitum. Bilateral ovariectomy was performed under isoflurane-induced anesthesia. […] Randomization and treatments were started one week later. […] The 17 groups included two control groups (OVX and OVX+Estrone), seven groups supplemented with an estrone implant and treated with an antiestrogen and eight other groups that received an antiestrogen alone. The estrone implants were then removed from the animals in the ovariectomized control group (OVX) and in groups that were to receive the antiestrogen alone. […] Tamoxifen was purchased from […], Israel) while toremifene citrate was purchased from Orion (Espoo, Finland). […] Animals in both control groups received 0.2 ml of the vehicle alone. The antiestrogen suspensions at the appropriate concentration were prepared each month, stored at 4° C. and used under constant agitation. Powder stock were hermetically stored at 4° C. […] Tumor response was assessed at the end of the study or at death of each animal, if it occurred during the course of the experiment. In this case, only data of mice that survived for at least half of the study (84 days) were used in the tumor response analysis.

[5] = tested on: human breast cancer ZR-75-1 xenografts; test: Tamoxifen-stimulated growth of ZR-75-1 xenografts in nude mice with or without EM-652.HCl (FIG. 9); assay type: in vivo
Solid state stability = assay type: physicochemical
Description: In administering either EM-800 or EM-1538, it is believed to result in the same active compound in vivo.

[6] = alone, absence of estrone, both doses used
[7] = 50 μg daily + estrone, 161 days

CC1=C(c2ccc(O)cc2)[C@H](c2ccc(OCCN3CCCCC3)cc2)Oc2cc(O)ccc21.Cl [EM-652.HCl, (S)-(+)-7-hydroxy-3-(4′-hydroxyphenyl)-4-methyl-2-(4″-(2′″-piperidinoethoxy)phenyl)-2H-1-benzopyran hydrochloride]
Inhibition of estrone-stimulated uterine weight ([1]; 1 μg daily oral): 24% | Inhibition of estrone-stimulated vaginal weight ([1]; 1 μg daily oral): 10% | Inhibition of estrone-stimulated uterine weight ([1]; 3 μg daily oral): 48% | Inhibition of estrone-stimulated vaginal weight ([1]; 3 μg daily oral): 25% | Inhibition of estrone-stimulated uterine weight ([1]; 10 μg daily oral): 72% | Inhibition of estrone-stimulated vaginal weight ([1]; 10 μg daily oral): 53% | Stimulatory effect on uterine weight [1, 6]: no significant stimulatory effect | Stimulatory effect on vaginal weight [1, 6]: no significant stimulatory effect | OVX-induced fat percentage increase [2]: completely prevented | Serum ALP [2]: 91 ± 6 IU/L | Serum cholesterol [2]: 0.87 ± 0.04 mmol/L | Serum ALP [3]: 78 ± 4 IU | Serum cholesterol [3]: 0.98 ± 0.06 mmol/L | Femoral BMD [4]: completely prevented the further decrease | Lumbar spine BMD [4]: completely prevented the further decrease | Total body fat [4]: prevented the 17% increase | Complete response, of tumors (ZR-75-1 breast tumors; [7]): 17% | Partial response, of tumors (ZR-75-1 breast tumors; [7]): 17% | Progressing tumors (ZR-75-1 breast tumors; [7]): 7% | Stable response, of tumors (ZR-75-1 breast tumors; [7]): 60% | Effect on estrone-stimulated tumor growth (ZR-75-1 breast tumors; 50 μg daily oral + estrone, 23 weeks): completely prevented tumor growth | Change of ZR-75-1 tumor size compared to the OVX control group (ZR-75-1 breast tumors; 200 μg daily alone, absence of estrone, 161 days): did not significantly change | Effect on tumor growth in the absence of Tamoxifen ([5]; EM-652.HCl by itself, hydrochloride): has no effect on tumor growth; also recorded: did not exert any stimulatory effect | Effect on the stimulatory effect of Tamoxifen on tumor growth ([5]; simultaneous treatment with Tamoxifen): completely blocked | Solid state stability (Solid state stability): good solid state stability

Reference: patent US20030040510A1, “Selective estrogen receptor modulators in combination with estrogens” (Endorecherche, Inc., priority 2000, published 2003)
